Test results as given in patent US20060110456A1, “Method for biocidal and/or biostatic treatment and compositions therefor” (NATIONAL UNIVERSITY OF SINGAPORE, priority 2004, published 2006).
Where a name gives a salt, the structure may show the parent alone. Read-outs that look alike come from different tables or passages of the source.

What was measured:
[1] = test system: marine bacteria (26 strains); test: Disk inhibition assay; assay type: cell-based, marine bacteria isolated from Singapore fouling communities
Summary of the method: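 Tablets or capsule powders suspended in sterile water at 2 mg ml^−1 and loaded onto disks; antibiotic discs (Amp, Ery, Str, Tet) served as comparison. Disks placed on swabbed lawns on Marine Agar, incubated overnight in the dark at 30° C. Zone of clearing diameter measured by calipers; three replicates on three occasions.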

barnacle nauplii = test: Toxicity of drugs under different light conditions and over time (stability in seawater); assay type: in vivo, Balanus amphitrite; conditions: 25 ug ml^−1 seawater suspension; for Change in toxicity on ageing in seawater, 12L:12D condition: 12 h light and 12 h dark; for Change in toxicity on ageing in seawater, 12L:12D condition / Change in toxicity on ageing in seawater, dark condition: after 4 weeks
Description: Preliminary experiments were carried out to examine the chemical stability of the drugs. 25 ug ml^−1 seawater suspensions of the drugs were prepared, in 3 replicates per condition, 3 replicate tubes containing 15 ml per test tube per prepared for each treatment type. The treatments consisted of: • i. Dark condition: tubes were wrapped in aluminium foil and kept in the dark at all times • ii. 12L:12D condition, where the tubes were subject incubated in a plant growth chamber with light regime of 12 hours light and 12 hours dark. • iii. UV treated tubes were subject to UV for half an hour. […] Sets (1) & (2) were tested at week 0, 1, 2 and after 4 weeks. “UV” set is only assayed after UV treatment. […] Effect of UV

[2] = test system: Balanus amphitrite cyprids; test: whole plant or invertebrate; conditions: for IC50: Amphibalanus amphitrite, 24 h, read-out: ED50; for Prevention of settlement of barnacle cyprids: crude rank, best (1) to worst (8)
Description: Pharmaceuticals from the respective manufacturers were treated in the following way. A pill containing a known amount of active ingredient (as stated in product information) was ground in a mortar and pestle and a suspension of 2 mg ml^−1 generated in de-ionized water. This stock solution is stored at −20° C. in 4 ml amber screw cap vials. For the bioassays, 250 ul of stock solution is added to 10 ml of 1 um filtered seawater. This suspension was then sonicated for 10 minutes. Serial dilutions of this 50 μg ml^−1 seawater solution, or suspension, with seawater was done to generate the required range of concentrations.
This method is now standard practice for many antifouling screening of novel compounds.
Barnacle larvae from field-collected adults were reared on an algal mixture of 1:2:2 v/v of Rhodomonas salina, Tetraselmis suecica and Chaetoceros muelleri at 25° C., at approximately 5×10^5 cells per ml density. On this regime, larvae metamorphose to cyprids in 5 days.
Test solutions were made up to twice the required final concentration. 1 ml of test solution was added into each well, and cyprids were transferred into each well in 1 ml of seawater. Assays were done in triplicate. After 24 hours, larvae that had attached and metamorphosed were enumerated and the result expressed as percentage settlement. Larvae not attached were scored as not settled.
The Therapeutic Ratio, or LC50/EC50, is a way of assessing the effectiveness of the compound in relation to its toxicity. […] LC50 and EC50 estimates and the therapeutic ratio should be considered as working values providing an estimation of potency, rather than as absolutes.

[3] = crude rank, best (1) to worst (8)
[4] = strain 1 (Rhodovulum), 25 μg per disc
[5] = strain 1 (Rhodovulum), 50 μg per disc
[6] = strain 2 (Erythrobacter), 25 μg per disc
[7] = strain 2 (Erythrobacter), 50 μg per disc
[8] = strain 3 (Erythrobacter), 25 μg per disc
[9] = strain 3 (Erythrobacter), 50 μg per disc
[10] = strain 4 (Bacillus), 25 μg per disc
[11] = strain 4 (Bacillus), 50 μg per disc
[12] = strain 6 (Vibrio), 25 μg per disc
[13] = strain 6 (Vibrio), 50 μg per disc
[14] = strain 7 (Vibrio), 25 μg per disc
[15] = strain 7 (Vibrio), 50 μg per disc
[16] = strain 8 (Bacillus), 25 μg per disc
[17] = strain 8 (Bacillus), 50 μg per disc
[18] = strain 9 (Bacillus), 25 μg per disc
[19] = strain 9 (Bacillus), 50 μg per disc
[20] = strain 10 (Halobacillus), 25 μg per disc
[21] = strain 10 (Halobacillus), 50 μg per disc
[22] = strain 11 (Pseudomonas), 25 μg per disc
[23] = strain 11 (Pseudomonas), 50 μg per disc
[24] = strain 12 (Gordonia), 25 μg per disc
[25] = strain 12 (Gordonia), 50 μg per disc
[26] = strain 13 (Bacillus), 25 μg per disc
[27] = strain 13 (Bacillus), 50 μg per disc
[28] = strain 14 (Vibrio), 25 μg per disc
[29] = strain 14 (Vibrio), 50 μg per disc
[30] = strain 16 (Pseudoalteromonas), 25 μg per disc
[31] = strain 16 (Pseudoalteromonas), 50 μg per disc
[32] = strain 17 (Gordonia), 25 μg per disc
[33] = strain 17 (Gordonia), 50 μg per disc
[34] = strain 18 (Microbacterium), 25 μg per disc
[35] = strain 18 (Microbacterium), 50 μg per disc
[36] = strain 19 (Erythrobacter), 25 μg per disc
[37] = strain 19 (Erythrobacter), 50 μg per disc

CN1CCN(CCCN2c3ccccc3Sc3ccc(Cl)cc32)CC1 [PCZ, prochlorperazine maleate]
< 5 mm: zone of inhibition at 25 µg/disc [1, 4] | zone of inhibition at 50 µg/disc [1, 5] | zone of inhibition at 25 µg/disc [1, 6] | zone of inhibition at 50 µg/disc [1, 7] | zone of inhibition at 25 µg/disc [1, 12] | zone of inhibition at 25 µg/disc [1, 14] | zone of inhibition at 50 µg/disc [1, 15] | zone of inhibition at 25 µg/disc [1, 28] | zone of inhibition at 50 µg/disc [1, 29] | zone of inhibition at 25 µg/disc [1, 30] | zone of inhibition at 50 µg/disc [1, 31] | zone of inhibition at 25 µg/disc ([1]; strain 21, 25 μg per disc)
3: Antibiotic activity against marine bacteria [1, 3]
10 to 19 mm: zone of inhibition at 25 µg/disc [1, 8] | zone of inhibition at 50 µg/disc [1, 9] | zone of inhibition at 25 µg/disc [1, 10] | zone of inhibition at 50 µg/disc [1, 11] | zone of inhibition at 25 µg/disc [1, 16] | zone of inhibition at 50 µg/disc [1, 17] | zone of inhibition at 25 µg/disc [1, 18] | zone of inhibition at 50 µg/disc [1, 19] | zone of inhibition at 25 µg/disc [1, 20] | zone of inhibition at 50 µg/disc [1, 21] | zone of inhibition at 25 µg/disc [1, 22] | zone of inhibition at 50 µg/disc [1, 23] | zone of inhibition at 25 µg/disc [1, 24] | zone of inhibition at 25 µg/disc [1, 26] | zone of inhibition at 50 µg/disc [1, 27] | zone of inhibition at 25 µg/disc [1, 32] | zone of inhibition at 25 µg/disc [1, 34] | zone of inhibition at 25 µg/disc [1, 36] | zone of inhibition at 50 µg/disc [1, 37] | zone of inhibition at 25 µg/disc ([1]; strain 20, 25 μg per disc) | zone of inhibition at 50 µg/disc ([1]; strain 20, 50 μg per disc) | zone of inhibition at 50 µg/disc ([1]; strain 21, 50 μg per disc) | zone of inhibition at 25 µg/disc ([1]; strain 22, 25 μg per disc) | zone of inhibition at 50 µg/disc ([1]; strain 22, 50 μg per disc) | zone of inhibition at 25 µg/disc ([1]; strain 24, 25 μg per disc) | zone of inhibition at 50 µg/disc ([1]; strain 24, 50 μg per disc) | zone of inhibition at 50 µg/disc ([1]; strain 26, 50 μg per disc) | zone of inhibition at 50 µg/disc ([1]; strain 27, 50 μg per disc) | zone of inhibition at 25 µg/disc ([1]; strain 28, 25 μg per disc) | zone of inhibition at 50 µg/disc ([1]; strain 28, 50 μg per disc) | zone of inhibition at 25 µg/disc ([1]; strain 29, 25 μg per disc) | zone of inhibition at 50 µg/disc ([1]; strain 29, 50 μg per disc) | zone of inhibition at 25 µg/disc ([1]; strain 30, 25 μg per disc) | zone of inhibition at 50 µg/disc ([1]; strain 30, 50 μg per disc)
20 to 29 mm: zone of inhibition at 50 µg/disc [1, 25] | zone of inhibition at 50 µg/disc [1, 33] | zone of inhibition at 50 µg/disc [1, 35]
0.174 µg/mL: IC50 [2]
marked decrease in toxicity: Change in toxicity on ageing in seawater, 12L:12D condition (barnacle nauplii)
2: Prevention of settlement of barnacle cyprids [2]
strongest activity: Antibiotic activity against marine bacteria [1]
appreciable decrease in toxicity: Change in toxicity on ageing in seawater, dark condition (barnacle nauplii)
5 to 9 mm: zone of inhibition at 50 µg/disc [1, 13] | zone of inhibition at 25 µg/disc ([1]; strain 26, 25 μg per disc) | zone of inhibition at 25 µg/disc ([1]; strain 27, 25 μg per disc)

CN1CCN(CCCN2c3ccccc3Sc3ccc(C(F)(F)F)cc32)CC1 [TFZ, Trifluoperazine hydrochloride]
20 to 29 mm: zone of inhibition at 50 µg/disc ([1]; strain 20, 50 μg per disc) | zone of inhibition at 50 µg/disc ([1]; strain 22, 50 μg per disc)
strongest activity: Antibiotic activity against marine bacteria ([1]; 25 or 50 μg per disc, in words)
some increase in toxicity: Effect of UV on drug toxicity to barnacle nauplii (barnacle nauplii; UV for half an hour)
marked decrease in toxicity: Change in toxicity on ageing in seawater, 12L:12D condition (barnacle nauplii)
appreciable decrease in toxicity: Change in toxicity on ageing in seawater, dark condition (barnacle nauplii)
5 to 9 mm: zone of inhibition at 25 µg/disc [1, 12] | zone of inhibition at 50 µg/disc [1, 13] | zone of inhibition at 50 µg/disc [1, 15] | zone of inhibition at 25 µg/disc [1, 16] | zone of inhibition at 25 µg/disc [1, 30] | zone of inhibition at 25 µg/disc [1, 32] | zone of inhibition at 25 µg/disc ([1]; strain 21, 25 μg per disc) | zone of inhibition at 50 µg/disc ([1]; strain 21, 50 μg per disc) | zone of inhibition at 25 µg/disc ([1]; strain 26, 25 μg per disc) | zone of inhibition at 25 µg/disc ([1]; strain 28, 25 μg per disc)
2: Strains showing no inhibition (of 26) ([1]; 50 μg per disc) | Prevention of settlement of barnacle cyprids [2]
0.0748 µg/mL: IC50 [2]
10 to 19 mm: zone of inhibition at 50 µg/disc [1, 7] | zone of inhibition at 25 µg/disc [1, 8] | zone of inhibition at 50 µg/disc [1, 9] | zone of inhibition at 25 µg/disc [1, 10] | zone of inhibition at 50 µg/disc [1, 11] | zone of inhibition at 50 µg/disc [1, 17] | zone of inhibition at 25 µg/disc [1, 18] | zone of inhibition at 50 µg/disc [1, 19] | zone of inhibition at 25 µg/disc [1, 20] | zone of inhibition at 50 µg/disc [1, 21] | zone of inhibition at 25 µg/disc [1, 22] | zone of inhibition at 50 µg/disc [1, 23] | zone of inhibition at 25 µg/disc [1, 24] | zone of inhibition at 50 µg/disc [1, 25] | zone of inhibition at 25 µg/disc [1, 26] | zone of inhibition at 50 µg/disc [1, 27] | zone of inhibition at 50 µg/disc [1, 31] | zone of inhibition at 50 µg/disc [1, 33] | zone of inhibition at 25 µg/disc [1, 34] | zone of inhibition at 50 µg/disc [1, 35] | zone of inhibition at 25 µg/disc [1, 36] | zone of inhibition at 50 µg/disc [1, 37] | zone of inhibition at 25 µg/disc ([1]; strain 20, 25 μg per disc) | zone of inhibition at 25 µg/disc ([1]; strain 22, 25 μg per disc) | zone of inhibition at 25 µg/disc ([1]; strain 24, 25 μg per disc) | zone of inhibition at 50 µg/disc ([1]; strain 24, 50 μg per disc) | zone of inhibition at 50 µg/disc ([1]; strain 26, 50 μg per disc) | zone of inhibition at 25 µg/disc ([1]; strain 27, 25 μg per disc) | zone of inhibition at 50 µg/disc ([1]; strain 27, 50 μg per disc) | zone of inhibition at 50 µg/disc ([1]; strain 28, 50 μg per disc) | zone of inhibition at 25 µg/disc ([1]; strain 29, 25 μg per disc) | zone of inhibition at 50 µg/disc ([1]; strain 29, 50 μg per disc) | zone of inhibition at 25 µg/disc ([1]; strain 30, 25 μg per disc) | zone of inhibition at 50 µg/disc ([1]; strain 30, 50 μg per disc)
22: Number of strains inhibited out of 26 strains ([1]; 25 μg per disc)
< 5 mm: zone of inhibition at 25 µg/disc [1, 4] | zone of inhibition at 50 µg/disc [1, 5] | zone of inhibition at 25 µg/disc [1, 6] | zone of inhibition at 25 µg/disc [1, 14] | zone of inhibition at 25 µg/disc [1, 28] | zone of inhibition at 50 µg/disc [1, 29]
3: Antibiotic activity against marine bacteria [1, 3]
